# Test system: human macrophages
# Experiment: Effect of calcitonin receptor agonism on cytokine (IL6) secretion in human macrophages, bead-based immunoassay
# Assay type: cell-based
# Conditions: human monocyte-derived macrophages, supernatant
# Experimental: CD14+ monocytes were isolated from human PBMCs using negative magnetic bead selection (Stemcell Technologies) on day 0. Cells were cultured with M-CSF to differentiate monocytes to macrophages. On day 6, cells were treated with SUN-B-8155, a non-peptide calcitonin receptor agonist (Sigma-Aldrich), at concentrations 2 μM and 20 μM overnight. Supernatant was collected and bead-based immunoassays (Biolegend) were performed to detect changes in cytokine secretion.
# Across multiple donors, secretion of the inflammatory cytokine, IL6, by macrophages was decreased after addition of small molecule agonist to calcitonin receptor, as shown in Table 13 below.
structure (smiles),measurement,setting,value
CC(=Nc1ccccc1N)c1c(C)cc(=O)n(O)c1O [SUN-B-8155],Fold change of IL6 (Normalized to Macs + LPS with no compound treatment),2 μM overnight,0.92
same,Fold change of IL6 (Normalized to Macs + LPS with no compound treatment),20 μM overnight,0.09

# — patent publication US11274158B2, “Methods and compositions for treating inflammatory or autoimmune diseases or conditions using calcitonin receptor activators” (Flagship Pioneering Innovations V, Inc., priority 2018, dated 2022)
